# Data reported in patent publication US10945972B2, “Particulate materials” (Nektar Therapeutics, priority 2002, dated 2021).
# Legend:
# Assay type in all cases: physicochemical
# [1] = Inverse gas chromatography surface energy (Example 1); conditions: 303K
# Text: For TBS and FHBr powders, IGC was done using a Hewlett Packard Series 6890 instrument which was specifically modified for IGC measurements by Surface Measurement Systems Ltd (Manchester, UK). The IGC method is described in detail by Tong et al. 2001. (Tong H. H. Y., B. Y. Shekunov, P. York, A. H. L. Chow, 2001. Pharm. Res. 18, 852.) Triplicate measurements in separate packed columns were made. […] The γS^D and ΔGA values were obtained at 303K.
# [2] = Differential scanning calorimetry (Example 8); conditions: DSC, 10° C. min^−1
# Procedure: Prior to sample analysis, a baseline was obtained which was used as a background. […] Temperature and enthalpy were calibrated with the standard materials indium (melting point=156.6° C.) and zinc (melting point=419.5° C.). Samples (1-10) were accurately weighed into pierced, crimped aluminium pans and heated at 10° C. min^−1 over a heating range of 25-290° C. under a nitrogen purge. A chiller unit was used in conjunction with the calorimeter to attain the lower temperatures.
# [3] = Inverse gas chromatography of TBS (Example 8)
# Procedure: An empty GC column was uniformly packed with the powder of interest (TBS). Pre-silanized commercially available straight glass columns of 30 cm length with a 3 mm internal diameter were used in this investigation. The silanation procedure was necessary to minimize active sites on the inner glass surfaces, which strongly interact with polar probes. Each column was packed at the detector end with a small amount of silanised glass wool, was clipped to a stand and powder was added through a glass funnel with the aid of a mechanical column packer (tapping) to improve powder flow and remove any air gaps. […] A. Hewlett Packard 6890 Series Gas Chromatograph (GC) (Hewlett Packard, Penna, USA) oven equipped with an autosampler was used to control the solvent temperature. The 6890 GC data acquisition system was used to record data from a thermal conductivity detector (TCD) and flame ionisation detector (FID) with the instrument modified for IGC by Surface Measurement Systems (SMS), Manchester, UK. The combination of detectors allowed sensitive analysis of both organic vapour elution and water (although RH was not raised above 0% for these experiments).
# The whole system was fully automated by control software (SMS iGC Controller v1.3) and the data analyzed using SMS iGC Analysis macros. Prior to analysis, each column was equilibrated at 30° C. and 0% relative humidity (RH) for 5 hours by passing dry helium gas through the column. Helium gas was also used as the carrier gas. Hydrogen and compressed air flow rates were set at 40 and 450 ml min respectively for the FID. The chromatograph injection port was maintained at 80° C., TCD detector at 150° C. and the FID detector at 150° C. Column temperature was set at 30° C. throughout analysis. Data were obtained by flowing helium gas at 10 ml min^−1 through the sinalized glass column packed with a known weight of powdered material and injecting small amounts (concentration P/Po=0.05) of a range of probe vapors with different polarities. The retention times of the probes were measured using SMS iGC Controller v1.3 software, at infinite dilution or near zero surface coverage (equivalent to 10^−4-10^−7 μl of liquid) where retention is independent of the quantity of probe injected. For each sample, two columns were prepared and analysed by employing a method based on standard settings, which allows the precise control and measurement of experimental variables. This is essential in producing meaningful results. The data were used to calculate the dispersive and non-dispersive forces acting at TBS particle surfaces using the method developed by Schultz and co-workers (J. Schultz, L. Lavielle and C. Martin. The role of the interface in carbon fibre-epoxy composites, J. Adhesion, 23, 45-60 (1987)).
# [4] = Isothermal microcalorimetry, TAM with RH ramp (Example 8); conditions: 25° C., RH ramp 0 to 90% at 3% RH/hr; listed as TBS2
# Procedure: A Thermal Activity Monitor (TAM, model 2277; Thermometric A B, Jrflla, Sweden) was used to measure the calorimetric heat flow (μW) vs. % RH profile of each sample. A RH-perfusion cell (Model 2255-120) accessory for the TAM was used to control RH within the sample vessel. The carrier gas, dry N2, was flowed at a constant rate (1.48 cm^3/min). All experiments were performed at 25° C. About 100 to 105 mg accurately weighed of each powder were placed in a stainless steel ampoule, attached to the RH perfusion cell, and then dried under 0% RH until a stable heat flow signal was reached (e.g., a signal within the range of −1 to +1 μW). The RH was then increased in a linear ramp from 0 to 90% over the following 30 hours (i.e., 3% RH/hr). The heat flow arising from interactions of water vapor with the solid sample was measured as a function of time. Since RH changed with time in a linear fashion, the heat flow was also known as a function of RH.
# The TAM measures the total heat flow in power, P, produced from either a physical or chemical reaction. In this study, the calorimetric power is proportional to the rate of moisture sorption or desorption, crystallization, and/or other processes. Exothermic events are measured as a deflection in the positive y-axis direction. Although crystallization is an exothermic process, it can be observed as a net endothermic process. During crystallization, there is an exotherm due to crystallization and a simultaneous endotherm due to desorption of previously sorbed moisture. The TAM profile gives the resultant of these processes.
# [5] = Particle size by AeroSizer time-of-flight (Example 1); conditions: aerodynamic-equivalent volume mean diameter
# Procedure: PSD measurements were performed using firstly, AEROSIZER® time-of-flight instrument equipped with AERO-[…]® (TSI Inc., Minneapolis. USA) and secondly, laser diffraction sensor Helos with dry-powder air-dispersion system Rodos (Sympatec GmbH. Germany). The volume mean particle diameter, VMD, was obtained for both instruments using software options. In the general case of non-spherical particles, these instruments cannot provide the exact value of VMD, however, the time-of-flight technique gives an aerodynamic-equivalent particle diameter, whereas the laser diffraction method provides the geometric projection-equivalent diameter. These diameters afford the complementary information on PSD and therefore can be used for comparative size analysis.
smiles,measurement,setting,value
"CC(C)(C)NCC(O)c1cc(O)cc(O)c1 (stereo not shown) [TSB SEDS, terbutaline sulphate]",γs^D (mJ/m^2),[1],55.05 mJ/m^2
same,ΔGA (kJ/mol) Acetone,[1]; probe acetone,10.42 kJ/mol
same,ΔGA (kJ/mol) Chloroform,[1]; probe chloroform,1.21 kJ/mol
same,ΔGA (kJ/mol) Dioxane,[1]; probe dioxane,14.20 kJ/mol
same,ΔGA (kJ/mol) Ethyl acetate,[1]; probe ethyl acetate,13.76 kJ/mol
same,ΔGA (kJ/mol) Toluene,[1]; probe toluene,2.85 kJ/mol
same,Enthalpy of Fusion,[2]; listed as TBS 2,88.68 J/g
same,Enthalpy of Fusion,[2]; listed as TBS2,88.68 J/g
same,γs^D mJm^−2,"[3]; 30° C., 0% RH, listed as TBS 2",55.05 mJm^−2
same,KA,[3]; listed as TBS 2,0.778
same,−ΔGA^SP (kJ/mol) Acetone,"[3]; probe acetone, listed as TBS 2",10.42 kJ/mol
same,−ΔGA^SP (kJ/mol) Dioxane,[3]; probe dioxane,14.20 kJ/mol
same,−ΔGA^SP (kJ/mol) Ethyl acetate,"[3]; probe ethyl acetate, listed as TBS 2",13.76 kJ/mol
same,−ΔGA^SP (kJ/mol) Toluene,"[3]; probe toluene, listed as TBS 2",2.85 kJ/mol
same,RH of thermal event in TAM profile,[4],about 85 % RH
same,VMD (μm) (Time of flight),[5],3.4 μm
